# Tested on: Lolium perenne (LOLPE)
# Assay: Glasshouse herbicide test, pre- and post-emergence, percentage damage
# Type: in vivo
# Details: post-emergence, 1000 g/h, evaluated after 13 days, five point scale
# Procedure: (§1) Seeds of a variety of test species are sown in standard soil in pots (Alopecurus myosuroides (ALOMY), Setaria faberi (SETFA), Stellaria media (STEME), Echinochloa crus-galli (ECHCG), Solanum nigrum (SOLNI), Amaranthus retoflexus (AMARE), Ipomoea hederacea (IPOHE), Lolium perenne (LOLPE). After cultivation for one day (pre-emergence) or after 8 days cultivation (post-emergence) under controlled conditions in a glasshouse (at 24/16° C., day/night; 14 hours light; 65% humidity), the plants are sprayed with an aqueous spray solution derived from the formulation of the technical active ingredient in acetone/water (50:50) solution containing 0.5% Tween 20 (polyoxyethelyene sorbitan monolaurate, CAS RN 9005-64-5). Compounds ae applied at 1000 g/h. The test plants are then grown in a glasshouse under controlled conditions in a glasshouse (at 24/16° C., day/night; 14 hours light; 65% humidity) and watered twice daily. After 13 days for pre and post-emergence, the test is evaluated for the percentage damage caused to the plant. The biological activities are shown in the following table on a five point scale (5=80-100%; 4=60-79%; 3=40-59%; 2=20-39%; 1=0-19%).
row,Compound,"percentage damage caused to the plant, LOLPE, POST Application"
1,Cc1nc(C(C)F)ccc1C(=O)Nc1nnnn1C (stereo not shown) [Compound 1.006],5 (5=80-100%)
2,CS(=O)(=O)c1ccc(C(=O)Nc2nnn[nH]2)c(Cl)c1COCC(F)(F)F [Compound 1.002],1 (1=0-19%)
3,COc1cc2cc(C(=O)Nc3nnnn3C)c(C(F)(F)F)nc2nc1C [Compound 2.003],2 (2=20-39%)
4,CCCn1nnnc1NC(=O)c1cccc(Cl)c1Cl [Compound 1.016],1 (1=0-19%)
5,COc1ccc2cc(C(=O)Nc3nnn[nH]3)c(C(F)(F)F)nc2n1 [Compound 2.001],1 (1=0-19%)
6,Cn1nnnc1NC(=O)c1ccccc1Cl [Compound 1.015],4 (4=60-79%)
7,Cc1nc2nc(C(F)(F)F)c(C(=O)Nc3nnnn3C)cc2cc1F [Compound 2.002],2 (2=20-39%)
8,COCc1nc(C(C)F)ccc1C(=O)Nc1nnnn1C (stereo not shown) [Compound 1.007],2 (2=20-39%)

# Same assay, conditions: pre-emergence, 1000 g/h, evaluated after 13 days, five point scale
row,Compound,"percentage damage caused to the plant, LOLPE, PRE Application"
1,Cc1nc(C(C)F)ccc1C(=O)Nc1nnnn1C (stereo not shown) [Compound 1.006],4 (4=60-79%)
2,CS(=O)(=O)c1ccc(C(=O)Nc2nnn[nH]2)c(Cl)c1COCC(F)(F)F [Compound 1.002],1 (1=0-19%)
3,COc1cc2cc(C(=O)Nc3nnnn3C)c(C(F)(F)F)nc2nc1C [Compound 2.003],1 (1=0-19%)
4,CCCn1nnnc1NC(=O)c1cccc(Cl)c1Cl [Compound 1.016],1 (1=0-19%)
5,COc1ccc2cc(C(=O)Nc3nnn[nH]3)c(C(F)(F)F)nc2n1 [Compound 2.001],1 (1=0-19%)
6,Cn1nnnc1NC(=O)c1ccccc1Cl [Compound 1.015],3 (3=40-59%)
7,Cc1nc2nc(C(F)(F)F)c(C(=O)Nc3nnnn3C)cc2cc1F [Compound 2.002],2 (2=20-39%)
8,COCc1nc(C(C)F)ccc1C(=O)Nc1nnnn1C (stereo not shown) [Compound 1.007],1 (1=0-19%)

# Tested on: DIGSA
# Assay: as above
# Type: in vivo
# Details: post-emergence, 1000 g/h, evaluated after 13 days, five point scale
# Procedure: [The source words this procedure for another organism and reports this organism under the same test.] as §1
row,Compound,"percentage damage caused to the plant, DIGSA, POST Application"
1,Cc1nc(C(C)F)ccc1C(=O)Nc1nnnn1C (stereo not shown) [Compound 1.006],5 (5=80-100%)
2,CS(=O)(=O)c1ccc(C(=O)Nc2nnn[nH]2)c(Cl)c1COCC(F)(F)F [Compound 1.002],1 (1=0-19%)
3,COc1cc2cc(C(=O)Nc3nnnn3C)c(C(F)(F)F)nc2nc1C [Compound 2.003],4 (4=60-79%)
4,CCCn1nnnc1NC(=O)c1cccc(Cl)c1Cl [Compound 1.016],1 (1=0-19%)
5,COc1ccc2cc(C(=O)Nc3nnn[nH]3)c(C(F)(F)F)nc2n1 [Compound 2.001],1 (1=0-19%)
6,Cn1nnnc1NC(=O)c1ccccc1Cl [Compound 1.015],1 (1=0-19%)
7,Cc1nc2nc(C(F)(F)F)c(C(=O)Nc3nnnn3C)cc2cc1F [Compound 2.002],4 (4=60-79%)
8,COCc1nc(C(C)F)ccc1C(=O)Nc1nnnn1C (stereo not shown) [Compound 1.007],5 (5=80-100%)

# Same assay, conditions: pre-emergence, 1000 g/h, evaluated after 13 days, five point scale
row,Compound,"percentage damage caused to the plant, DIGSA, PRE Application"
1,Cc1nc(C(C)F)ccc1C(=O)Nc1nnnn1C (stereo not shown) [Compound 1.006],4 (4=60-79%)
2,CS(=O)(=O)c1ccc(C(=O)Nc2nnn[nH]2)c(Cl)c1COCC(F)(F)F [Compound 1.002],1 (1=0-19%)
3,COc1cc2cc(C(=O)Nc3nnnn3C)c(C(F)(F)F)nc2nc1C [Compound 2.003],1 (1=0-19%)
4,CCCn1nnnc1NC(=O)c1cccc(Cl)c1Cl [Compound 1.016],1 (1=0-19%)
5,COc1ccc2cc(C(=O)Nc3nnn[nH]3)c(C(F)(F)F)nc2n1 [Compound 2.001],1 (1=0-19%)
6,Cn1nnnc1NC(=O)c1ccccc1Cl [Compound 1.015],1 (1=0-19%)
7,Cc1nc2nc(C(F)(F)F)c(C(=O)Nc3nnnn3C)cc2cc1F [Compound 2.002],3 (3=40-59%)
8,COCc1nc(C(C)F)ccc1C(=O)Nc1nnnn1C (stereo not shown) [Compound 1.007],3 (3=40-59%)

# Tested on: Amaranthus retoflexus (AMARE)
# Assay: as above
# Type: in vivo
# Details: post-emergence, 1000 g/h, evaluated after 13 days, five point scale (Table B2)
# Procedure: as §1
row,Compound,"percentage damage caused to the plant, AMARE, POST Application"
1,Cc1nc(C(C)F)ccc1C(=O)Nc1nnnn1C (stereo not shown) [Compound 1.006],5 (5=80-100%)
2,CS(=O)(=O)c1ccc(C(=O)Nc2nnn[nH]2)c(Cl)c1COCC(F)(F)F [Compound 1.002],5 (5=80-100%)
3,COc1cc2cc(C(=O)Nc3nnnn3C)c(C(F)(F)F)nc2nc1C [Compound 2.003],5 (5=80-100%)
4,CCCn1nnnc1NC(=O)c1cccc(Cl)c1Cl [Compound 1.016],3 (3=40-59%)
5,COc1ccc2cc(C(=O)Nc3nnn[nH]3)c(C(F)(F)F)nc2n1 [Compound 2.001],3 (3=40-59%)
6,Cn1nnnc1NC(=O)c1ccccc1Cl [Compound 1.015],4 (4=60-79%)
7,Cc1nc2nc(C(F)(F)F)c(C(=O)Nc3nnnn3C)cc2cc1F [Compound 2.002],5 (5=80-100%)
8,COCc1nc(C(C)F)ccc1C(=O)Nc1nnnn1C (stereo not shown) [Compound 1.007],5 (5=80-100%)

# Same assay, conditions: pre-emergence, 1000 g/h, evaluated after 13 days, five point scale (Table B2)
row,Compound,"percentage damage caused to the plant, AMARE, PRE Application"
1,Cc1nc(C(C)F)ccc1C(=O)Nc1nnnn1C (stereo not shown) [Compound 1.006],5 (5=80-100%)
2,CS(=O)(=O)c1ccc(C(=O)Nc2nnn[nH]2)c(Cl)c1COCC(F)(F)F [Compound 1.002],5 (5=80-100%)
3,COc1cc2cc(C(=O)Nc3nnnn3C)c(C(F)(F)F)nc2nc1C [Compound 2.003],5 (5=80-100%)
4,CCCn1nnnc1NC(=O)c1cccc(Cl)c1Cl [Compound 1.016],4 (4=60-79%)
5,COc1ccc2cc(C(=O)Nc3nnn[nH]3)c(C(F)(F)F)nc2n1 [Compound 2.001],1 (1=0-19%)
6,Cn1nnnc1NC(=O)c1ccccc1Cl [Compound 1.015],5 (5=80-100%)
7,Cc1nc2nc(C(F)(F)F)c(C(=O)Nc3nnnn3C)cc2cc1F [Compound 2.002],5 (5=80-100%)
8,COCc1nc(C(C)F)ccc1C(=O)Nc1nnnn1C (stereo not shown) [Compound 1.007],5 (5=80-100%)

# Tested on: Stellaria media (STEME)
# Assay: as above
# Type: in vivo
# Details: post-emergence, 1000 g/h, evaluated after 13 days, five point scale
# Procedure: as §1
row,Compound,"percentage damage caused to the plant, STEME, POST Application"
1,Cc1nc(C(C)F)ccc1C(=O)Nc1nnnn1C (stereo not shown) [Compound 1.006],5 (5=80-100%)
2,CS(=O)(=O)c1ccc(C(=O)Nc2nnn[nH]2)c(Cl)c1COCC(F)(F)F [Compound 1.002],2 (2=20-39%)
3,COc1cc2cc(C(=O)Nc3nnnn3C)c(C(F)(F)F)nc2nc1C [Compound 2.003],5 (5=80-100%)
4,CCCn1nnnc1NC(=O)c1cccc(Cl)c1Cl [Compound 1.016],1 (1=0-19%)
5,COc1ccc2cc(C(=O)Nc3nnn[nH]3)c(C(F)(F)F)nc2n1 [Compound 2.001],3 (3=40-59%)
6,Cn1nnnc1NC(=O)c1ccccc1Cl [Compound 1.015],4 (4=60-79%)
7,Cc1nc2nc(C(F)(F)F)c(C(=O)Nc3nnnn3C)cc2cc1F [Compound 2.002],5 (5=80-100%)
8,COCc1nc(C(C)F)ccc1C(=O)Nc1nnnn1C (stereo not shown) [Compound 1.007],5 (5=80-100%)

# Same assay, conditions: pre-emergence, 1000 g/h, evaluated after 13 days, five point scale
row,Compound,"percentage damage caused to the plant, STEME, PRE Application"
1,Cc1nc(C(C)F)ccc1C(=O)Nc1nnnn1C (stereo not shown) [Compound 1.006],4 (4=60-79%)
2,CS(=O)(=O)c1ccc(C(=O)Nc2nnn[nH]2)c(Cl)c1COCC(F)(F)F [Compound 1.002],1 (1=0-19%)
3,COc1cc2cc(C(=O)Nc3nnnn3C)c(C(F)(F)F)nc2nc1C [Compound 2.003],1 (1=0-19%)
4,CCCn1nnnc1NC(=O)c1cccc(Cl)c1Cl [Compound 1.016],2 (2=20-39%)
5,COc1ccc2cc(C(=O)Nc3nnn[nH]3)c(C(F)(F)F)nc2n1 [Compound 2.001],1 (1=0-19%)
6,Cn1nnnc1NC(=O)c1ccccc1Cl [Compound 1.015],3 (3=40-59%)
7,Cc1nc2nc(C(F)(F)F)c(C(=O)Nc3nnnn3C)cc2cc1F [Compound 2.002],3 (3=40-59%)
8,COCc1nc(C(C)F)ccc1C(=O)Nc1nnnn1C (stereo not shown) [Compound 1.007],4 (4=60-79%)

# Source: patent US9686986B2, “Herbicidal compounds” (SYNGENTA LIMITED, priority 2011, dated 2017)
